pEC50, pIC50: −log10 of the molar value. Counter-ions that a name gives are not always drawn. Like-named read-outs stand apart in the source and are kept apart here.
Experiments:
F1F0-ATPase = molecular target: T1, F1F0-ATPase (Bos taurus, UniProt P13621); assay: Inhibition of F1F0-ATPase activity in synthesizing ATP; format: biochemical; conditions: inhibition of ATP synthesis; detection limit IC50=16 μM; read-out: ATP Syn IC50
T1 construct: from tissue
Method: (§1) Exemplary compounds described in above Examples were tested for activity against F1F0-ATPase by measuring the ability of the compounds to inhibit ATP synthesis. In addition, the compounds were assessed for cytotoxicity in Ramos cells. Inhibition of F1F0-ATPase activity in synthesizing ATP and cytotoxicity in Ramos cells were measured according to the procedures described in K. M. Johnson et al. Chemistry & Biology 2005, 12, 485-496.

Ramos cells = assay: Cytotoxicity in Ramos cells; format: cell-based; conditions: detection limit EC50=16 μM, read-out: Ramos Cell EC50
Method: as §1

| pIC50 (F1F0-ATPase) | Structure (SMILES) | pEC50 (Ramos cells; Homo sapiens) | pEC50 (Ramos cells) |
| --- | --- | --- | --- |
| > 5.30 | COC[C@H](C)N/C(=N/C(=O)c1ccc(F)c(F)c1)Nc1n[nH]c2cc(Cl)ccc12 [Compound 1, (S)-N-(((6-Chloro-1H-indazol-3-yl)amino)((1-methoxypropan-2-yl)amino)methylene)-3,4-difluorobenzamide] | > 5.30 | – |
| > 5.30 | CC(C)(O)CN/C(=N/C(=O)c1ccc(Cl)cc1)Nc1n[nH]c2cc(F)ccc12 [Compound 2, 4-Chloro-N-((6-fluoro-1H-indazol-3-ylamino)((2-hydroxy-2-methylpropyl)amino)methylene)benzamide] | < 4.80 | – |
| 4.80 to 5.30 | COC[C@H](C)NC(=NC(=O)c1ccc(F)c(F)c1)Nc1nn(C(=O)[C@@H](N)C(C)C)c2cc(C(F)(F)F)ccc12 [Compound 6, N-(((1-((S)-2-Amino-3-methylbutanoyl)-6-(trifluoromethyl)-1H-indazol-3-yl)amino)(((S)-1-methoxypropan-2-yl)amino)methylene)-3,4-difluorobenzamide hydrochloride salt] | < 4.80 | – |
| > 5.30 | CC1(N/C(=N/C(=O)c2ccc(Cl)cc2)Nc2n[nH]c3ccccc23)CCC1 [Compound A-1] | 4.80 to 5.30 | – |
| > 5.30 | CC(C)N/C(=N/C(=O)c1cccc(F)c1)Nc1n[nH]c2ccc(C(F)(F)F)cc12 [Compound A-2] | – | < 4.80 |
| > 5.30 | CC(C)(C)N/C(=N/C(=O)c1ccc(F)c(F)c1)Nc1n[nH]c2ccc(F)cc12 [Compound A-3] | – | 4.80 to 5.30 |
| > 5.30 | CC(C)CN/C(=N/C(=O)c1ccc(F)c(F)c1)Nc1n[nH]c2ccc(F)cc12 [Compound A-4] | – | 4.80 to 5.30 |
| > 5.30 | CC(C)(C)N/C(=N/C(=O)c1ccc(F)c(F)c1)Nc1n[nH]c2cccc(F)c12 [Compound A-5] | – | > 5.30 |
| < 4.80 | CC(C)CN/C(=N/C(=O)c1ccc(F)c(F)c1)Nc1n[nH]c2cccc(F)c12 [Compound A-6] | – | < 4.80 |
| < 4.80 | CC(C)(C)N/C(=N/C(=O)c1ccc(F)c(F)c1)Nc1n[nH]c2cc(C(F)(F)F)ccc12 [Compound A-7] | – | > 5.30 |
| > 5.30 | CC(C)CN/C(=N/C(=O)c1ccc(F)c(F)c1)Nc1n[nH]c2cc(C(F)(F)F)ccc12 [Compound A-8] | – | > 5.30 |
| > 5.30 | CCC(C)N/C(=N/C(=O)c1ccc(F)c(F)c1)Nc1n[nH]c2cc(C(F)(F)F)ccc12 (stereo not shown) [Compound A-9] | – | > 5.30 |
| > 5.30 | CC(C)N/C(=N/C(=O)c1ccc(F)c(F)c1)Nc1n[nH]c2cc(C(F)(F)F)ccc12 [Compound A-10] | – | > 5.30 |
| > 5.30 | CCOCCCNC(=NC(=O)c1ccc(F)c(F)c1)Nc1n[nH]c2cc(C(F)(F)F)ccc12 [Compound A-11] | – | > 5.30 |
| > 5.30 | CCOCCN/C(=N/C(=O)c1ccc(F)c(F)c1)Nc1n[nH]c2cc(C(F)(F)F)ccc12 [Compound A-12] | – | > 5.30 |
| > 5.30 | CC(C)(C)N/C(=N/C(=O)c1ccc(Cl)c(F)c1)Nc1n[nH]c2cc(C(F)(F)F)ccc12 [Compound A-13] | – | 4.80 to 5.30 |
| > 5.30 | CC(C)CN/C(=N/C(=O)c1ccc(Cl)c(F)c1)Nc1n[nH]c2cc(C(F)(F)F)ccc12 [Compound A-14] | – | > 5.30 |
| > 5.30 | CCOCCCN/C(=N/C(=O)c1ccc(Cl)c(F)c1)Nc1n[nH]c2cc(C(F)(F)F)ccc12 [Compound A-15] | – | > 5.30 |
| > 5.30 | CCC(C)NC(=NC(=O)c1ccc(Cl)c(F)c1)Nc1n[nH]c2cc(C(F)(F)F)ccc12 (stereo not shown) [Compound A-16] | 4.80 to 5.30 | – |
| > 5.30 | COC[C@H](C)N/C(=N/C(=O)c1ccc(Cl)c(F)c1)Nc1n[nH]c2cc(C(F)(F)F)ccc12 [Compound A-17] | – | < 4.80 |
| > 5.30 | CC(C)N/C(=N/C(=O)c1ccc(Cl)c(F)c1)Nc1n[nH]c2cc(C(F)(F)F)ccc12 [Compound A-18] | – | < 4.80 |
| > 5.30 | O=C(/N=C(\Nc1n[nH]c2cc(C(F)(F)F)ccc12)NC1CCCC1)c1ccc(Cl)c(F)c1 [Compound A-19] | > 5.30 | – |
| > 5.30 | CCOCCN/C(=N/C(=O)c1ccc(Cl)c(F)c1)Nc1n[nH]c2cc(C(F)(F)F)ccc12 [Compound A-20] | – | < 4.80 |
| > 5.30 | O=C(/N=C(\Nc1n[nH]c2cc(C(F)(F)F)ccc12)NC1CCOCC1)c1ccc(Cl)c(F)c1 [Compound A-21] | 4.80 to 5.30 | – |
| < 4.80 | O=C(/N=C(/NCCOCCO)Nc1n[nH]c2cc(C(F)(F)F)ccc12)c1ccc(Cl)c(F)c1 [Compound A-22] | – | < 4.80 |
| > 5.30 | CC(C)(C)N/C(=N/C(=O)c1ccc(N2CCOCC2)nc1)Nc1n[nH]c2cc(C(F)(F)F)ccc12 [Compound A-23] | – | 4.80 to 5.30 |
| > 5.30 | CC(C)CN/C(=N/C(=O)c1ccc(N2CCOCC2)nc1)Nc1n[nH]c2cc(C(F)(F)F)ccc12 [Compound A-24] | – | 4.80 to 5.30 |
| > 5.30 | O=C(/N=C(\Nc1n[nH]c2cc(C(F)(F)F)ccc12)NC1CCC1)c1ccc(N2CCOCC2)nc1 [Compound A-25] | 4.80 to 5.30 | – |

| pIC50 (F1F0-ATPase) | Structure (SMILES) | pEC50 (Ramos cells; Homo sapiens) | pEC50 (Ramos cells) |
| --- | --- | --- | --- |
| 4.80 to 5.30 | COC[C@H](C)N/C(=N/C(=O)c1ccc(N2CCOCC2)nc1)Nc1n[nH]c2cc(C(F)(F)F)ccc12 [Compound A-26] | – | < 4.80 |
| > 5.30 | CC(C)(C)CNC(=NC(=O)c1ccc(N2CCOCC2)nc1)Nc1n[nH]c2cc(C(F)(F)F)ccc12 [Compound A-27] | < 4.80 | – |
| 4.80 to 5.30 | CC(C)(C)CNC(=NC(=O)c1ccc2nonc2c1)Nc1n[nH]c2cc(F)ccc12 [Compound A-28] | < 4.80 | – |
| > 5.30 | CC(C)CN/C(=N/C(=O)c1ccc2nonc2c1)Nc1n[nH]c2cc(F)ccc12 [Compound A-29] | – | < 4.80 |
| < 4.80 | CCOCCN/C(=N/C(=O)c1ccc2nonc2c1)Nc1n[nH]c2cc(F)ccc12 [Compound A-30] | – | < 4.80 |
| > 5.30 | CC(C)CN/C(=N/C(=O)c1ccc(F)c(F)c1)Nc1n[nH]c2cc(Cl)ccc12 [Compound A-31] | – | > 5.30 |
| > 5.30 | CC(C)(C)N/C(=N/C(=O)c1ccc(F)c(F)c1)Nc1n[nH]c2cncc(F)c12 [Compound A-32] | – | 4.80 to 5.30 |
| < 4.80 | COC[C@H](C)N/C(=N/C(=O)c1ccc(F)c(F)c1)Nc1n[nH]c2cncc(F)c12 [Compound A-33] | – | < 4.80 |
| 4.80 to 5.30 | CC(C)(C)N/C(=N/C(=O)c1ccc(F)c(F)c1)Nc1n[nH]c2ccccc12 [Compound A-34] | – | 4.80 to 5.30 |
| < 4.80 | CC(C)CN/C(=N/C(=O)c1ccc(F)c(F)c1)Nc1n[nH]c2ccccc12 [Compound A-35] | – | < 4.80 |
| > 5.30 | CC(C)(C)CNC(=NC(=O)c1ccc(F)c(F)c1)Nc1n[nH]c2ccccc12 [Compound A-36] | > 5.30 | – |
| 4.80 to 5.30 | COC[C@H](C)N/C(=N/C(=O)c1ccc(F)c(F)c1)Nc1n[nH]c2ccccc12 [Compound A-37] | – | < 4.80 |
| < 4.80 | CCOCCN/C(=N/C(=O)c1ccc(F)c(F)c1)Nc1n[nH]c2ccccc12 [Compound A-38] | – | < 4.80 |
| 4.80 to 5.30 | CC1(CN/C(=N/C(=O)c2ccc(F)c(F)c2)Nc2n[nH]c3ccccc23)COC1 [Compound A-39] | – | < 4.80 |
| > 5.30 | CC(C)(C)N/C(=N/C(=O)c1ccc(F)c(F)c1)Nc1n[nH]c2cncc(Cl)c12 [Compound A-40] | – | > 5.30 |
| > 5.30 | CC(C)CN/C(=N/C(=O)c1ccc(F)c(F)c1)Nc1n[nH]c2cncc(Cl)c12 [Compound A-41] | – | > 5.30 |
| > 5.30 | CC(C)(C)CN/C(=N/C(=O)c1ccc(F)c(F)c1)Nc1n[nH]c2cncc(Cl)c12 [Compound A-42] | – | 4.80 to 5.30 |
| < 4.80 | COCC(C)NC(=NC(=O)c1ccc(F)c(F)c1)Nc1n[nH]c2cncc(Cl)c12 (stereo not shown) [Compound A-43] | < 4.80 | – |
| < 4.80 | CCOCCN/C(=N/C(=O)c1ccc(F)c(F)c1)Nc1n[nH]c2cncc(Cl)c12 [Compound A-44] | – | < 4.80 |
| 4.80 to 5.30 | CC(C)(C)N/C(=N/C(=O)c1ccc(F)c(F)c1)Nc1n[nH]c2cccnc12 [Compound A-45] | – | < 4.80 |
| < 4.80 | CC(C)CN/C(=N/C(=O)c1ccc(F)c(F)c1)Nc1n[nH]c2cccnc12 [Compound A-46] | – | < 4.80 |
| < 4.80 | CC(C)(C)CNC(=NC(=O)c1ccc(F)c(F)c1)Nc1n[nH]c2cccnc12 [Compound A-47] | < 4.80 | – |
| < 4.80 | COC[C@H](C)N/C(=N/C(=O)c1ccc(F)c(F)c1)Nc1n[nH]c2cccnc12 [Compound A-48] | – | < 4.80 |
| < 4.80 | CCOCCN/C(=N/C(=O)c1ccc(F)c(F)c1)Nc1n[nH]c2cccnc12 [Compound A-49] | – | < 4.80 |
| > 5.30 | CC(C)(C)N/C(=N/C(=O)c1ccc(F)c(F)c1)Nc1n[nH]c2ccc(C(F)(F)F)cc12 [Compound A-50] | – | > 5.30 |
| > 5.30 | CC(C)CN/C(=N/C(=O)c1ccc(F)c(F)c1)Nc1n[nH]c2ccc(C(F)(F)F)cc12 [Compound A-51] | – | > 5.30 |
| > 5.30 | CC(C)(C)CN/C(=N/C(=O)c1ccc(F)c(F)c1)Nc1n[nH]c2ccc(C(F)(F)F)cc12 [Compound A-52] | – | > 5.30 |

| Structure (SMILES) | pIC50 (F1F0-ATPase) | pEC50 (Ramos cells; Homo sapiens) | pEC50 (Ramos cells) |
| --- | --- | --- | --- |
| COC[C@H](C)N/C(=N/C(=O)c1ccc(F)c(F)c1)Nc1n[nH]c2cc(C(F)(F)F)ccc12 [Compound 3, (S)-3,4-Difluoro-N-(((1-methoxypropan-2-yl)amino)((6-(trifluoromethyl)-1H-indazol-3-yl)amino)methylene)benzamide] | > 5.30 | > 5.30 | – |
